Laboratory results: patent publication US9901081B2, “Transgenic mouse for determining the role of senescent cells in cancer” (Buck Institute for Research on Aging, priority 2012, dated 2018)

How the values were obtained:
[1] = tested on: K-Ras induced lung tumors; assay: K-Ras mediated lung tumor multiplicity in INK-ATTAC:K-RasLA1 mice; format: in vivo, mouse; set-up: dose or concentration left out as unconfirmed; conditions: INK-ATTAC3:K-RasLA1 and INK-ATTAC5:K-RasLA1 mice; from three weeks of age; twenty one days after treatment; FIG. 4
From the text: Briefly, INK-ATTAC (p16^Ink4a apoptosis through targeted activation of caspase) transgenic mice have an FK506-binding protein (FKBP)-caspase 8 (Casp8) fusion polypeptide under the control of the p16^Ink4a promoter (see FIG. 5 providing a vector sequence for the transgene and FIG. 6 providing sequences for components of the transgene including the promoter sequence). In the presence of AP20187, a synthetic drug that induces dimerization of a membrane bound myristoylated FKBP-Casp8 fusion protein, senescent cells specifically expressing the FKBP-Casp8 fusion protein via the p16^Ink4a promoter undergo programmed cell death (apoptosis) (see, e.g., Baker, Nature, supra, FIG. 1 therein). Two founder lines (INK-ATTAC^3 and INK-ATTAC^5) were each bred with the K-rasLA1 tumor model. […]
Two INK-ATTAC:K-RasLA1 were produced (one for INK-ATTAC line 3 and one for line 5). […] Twenty one days after treatment, the mice were sacrificed and tumor multiplicity in lungs was measured. […] In addition, metastasis and overall survival will be monitored after tumor induction in the presence or absence of p16-positive cells.

[2] = tested on: p16INK4a, IL-6, MMP-3, mRFP expression; assay: RNA expression of SASP biomarkers and mRFP reporter after irradiation and GCV; format: in vivo, mouse
[3] = tested on: B16 mouse melanoma cells; assay: Subcutaneous B16 melanoma growth in doxorubicin-treated p16-3MR mice; format: in vivo; conditions: for tumor growth / primary tumors (B16 bioluminescence) / tumor diameters (tumor sizes): then vehicle or GCV, twelve days after B16 injection; for tumor growth / primary tumors (B16 bioluminescence): FIG. 11; for tumor diameters (tumor sizes): FIG. 12
Experimental: (§1) Briefly, p16-3MR transgenic mice were treated with vehicle (ctrl) or 10 mg/kg doxorubicin. Seven days after doxorubicin treatment, mice were treated daily with GCV (25 mg/kg) for 7 days or vehicle only. 3 days after the last GCV treatment, 4×10^5 B16 mouse melanoma cells were injected subcutaneously into the p16-3MR transgenic mice, and mice were sacrificed after 12 days for analysis.

[4] = Behavior metrics in p16-3MR mice bearing MMTV-PymT tumors; format: in vivo, mouse
Experimental: (§2) The MMTV-PymT tumor cells (5×10^5 cells) were injected into a mammary fat pad of each mouse. Small primary tumors formed over a period of one week. Then doxorubicin (DOXO) at 10 mg/kg or vehicle only (PBS) was administered once at Day 7. Beginning three days after mice received DOXO, GCV was then administered daily for five days intraperitoneally at 25 mg/kg, or vehicle only was administered. Four different treatment groups of mice (7 mice per group) included (1) no doxorubicin (vehicle), no GCV (vehicle); (2) doxorubicin, no GCV; (3) no doxorubicin, GCV; and (4) doxorubicin, GCV. Bioluminescence in tissues was examined (after administering the firefly luciferase (fLUC) substrate) to monitor tumor formation (see FIG. 14).
(§3) Mice were housed in metabolic cages (Promethion, Sable Systems International, Las Vegas, Nev.) for a period of 4 days to monitor food consumption, water consumption, body mass, spontaneous activity and behavior, voluntary exercise, oxygen consumption, and carbon dioxide production. Three days after GCV treatment, animals were monitored for three nights, and the following nocturnal measurements were obtained: VO2 (mL/min); VCO2 (mL/min); food uptake (g); water uptake (g); Kcal/hr; and wheel run distance (m). The data represent the average of the three nocturnal measurements.
Behavior of animals treated doxorubicin or doxorubicin and GCV was assessed by several criteria accepted in the art as behavior metrics.

[5] = tested on: p16INK4a and mRFP mRNAs; assay: Senescent cell biomarkers in skin biopsies of doxorubicin-treated p16-3MR mice; format: in vivo, mouse; conditions: doxorubicin 10 mg/kg, then vehicle or GCV 25 mg/kg daily for 7 days; FIG. 10
Experimental: as §1
Skin biopsies were collected and measured for abundance of senescent cell biomarkers (p16INK4a and mRFP mRNAs).

[6] = tested on: senescent cells; assay: Detection and clearance of senescent cells by rLUC bioluminescence in irradiated p16-3MR mice; format: in vivo, mouse; conditions: 7 Gy X-ray, after three months GCV 25 mg/kg, lung tissue, FIG. 1A
Experimental: Briefly, a group of p16-3MR transgenic mice were exposed to whole body ionizing radiation (7 Gy X-ray) and a control group of p16-3MR transgenic mice were mock-irradiated. After three months, the mice were treated with GCV (25 mg/kg) or vehicle only, and then at least two weeks later bioluminescence in tissues was examined after administering the rLUC substrate.

[7] = tested on: B16 mouse melanoma cells; assay: B16 melanoma tail-vein engraftment in irradiated p16-3MR mice (primary tumors and metastases); format: in vivo
Experimental: Briefly, 10^6 B16 mouse melanoma cells, a highly aggressive cell line that is syngeneic with p16-3MR transgenic mice (C57B16 background), that express firefly luciferase (fLUC, to enable their detection by bioluminescence) were injected into the tail vein of the p16-3MR transgenic mice three months after being either mock irradiated or irradiated, as described in Example 2. B16 mouse melanoma cells first colonize the lung, where they form primary tumors approximately two weeks after injection, and thereafter metastasize to distal tissues to form secondary tumors in, for example, the pancreas, liver and visceral fat. The biolumninescence markers, fLUC and rLUC are distinguishable because the enzymes use different substrates.
As nodules are difficult to count in fat tissue, metastatic cells were represented as an estimated % of total area of fat.

[8] = tested on: senescent cells; assay: Doxorubicin-induced senescent cells in tissues of p16-3MR mice (mRFP and p16INK4a mRNA); format: in vivo, mouse; conditions: doxorubicin 10 mg/kg
From the text: Similar results were observed when the senescent cell accumulation was induced with the chemotherapeutic agent, doxorubicin. […] Various tissues were isolated (liver, heart, lung, kidney, and spleen) and measured for abundance of mRNAs encoding mRFP and p16INK4a as markers for senescent cells (see FIGS. 9A and 9B, respectively).

[9] = Metabolic cage measurements in p16-3MR mice not injected with tumor cells; format: in vivo, mouse; conditions: doxorubicin 10 mg/kg once, GCV 25 mg/kg i.p. 5x daily
Experimental: (§4) Groups of p16-3MR transgenic mice (5 mice per group) were treated once with doxorubicin (10 mg/kg) or vehicle only as described above. Three days later, GCV was administered 5× daily intraperitoneally at 25 mg/kg, or vehicle only was administered. Three different treatment groups of mice included (1) untreated (NT); (2) doxorubicin, no GCV (DOXO+PBS); (3) doxorubicin and GCV (DOXO+GCV). Mice were housed in metabolic cages for 5-8 days and monitored as described above.

[10] = Metabolic cage measurements in p16-3MR mice bearing MMTV-PymT tumors; format: in vivo, mouse; conditions: MMTV-PymT tumor mice; DOXO 10 mg/kg Day 7, GCV 25 mg/kg i.p. daily 5 days; average of three nocturnal measurements
Experimental: as §2, §3

[11] = Behavior metrics in p16-3MR mice not injected with tumor cells; format: in vivo, mouse
Experimental: as §4

[12] = GCV, fifteen days after B16 injection, FIG. 2C
[13] = MMTV-PymT tumor mice, 28 days after injection with tumor cells

CC[C@H](C(=O)N1CCCC[C@H]1C(=O)O[C@H](CCc1ccc(OC)c(OC)c1)c1cccc(OCC(=O)NCC(CNC(=O)COc2cccc([C@@H](CCc3ccc(OC)c(OC)c3)OC(=O)[C@@H]3CCCCN3C(=O)[C@@H](CC)c3cc(OC)c(OC)c(OC)c3)c2)CN(C)C)c1)c1cc(OC)c(OC)c(OC)c1 [AP20187]
tumor numbers (tumor multiplicity in lungs) [1]: significantly reduced

Nc1nc(O)c2ncn(COC(CO)CO)c2n1 [GCV, ganciclovir]
p16INK4a (p16), IL-6, MMP-3 and mRFP expression levels ([2]; irradiated p16-3MR mice treated with GCV, FIG. 1B): returned p16INK4a (p16), IL-6, MMP-3 and mRFP expression levels to those found in the unirradiated control mice | effect on expression levels in wild-type mice ([2]; wild-type, non-transgenic C57B16 mice, data not shown): no detectable effect | tumor growth / primary tumors (B16 bioluminescence) ([3]; doxorubicin 10 mg/kg): much smaller primary tumors | tumor diameters (tumor sizes) ([3]; doxorubicin 10 mg/kg): smaller tumor sizes | size of B16 melanoma tumors ([3]; mice pre-treated with doxorubicin 10 mg/kg, GCV 25 mg/kg daily for 7 days): substantially reduced the size | active behaviors (WHEEL, LLNGE, SLNGE) ([4]; tumor model animals treated with GCV after doxorubicin, vs doxorubicin only): significantly more active behaviors | senescence in skin biopsies measured by p16INK4a and mRFP expression [5]: low levels of p16INK4a and mRFP expression | rLUC expression levels (bioluminescence in tissues) [6]: comparable to unirradiated mice | Detection of metastatic B16 melanoma cells: Fat (estimated % of total area of fat) ([7]; 18 days after injection): 25% | Detection of metastatic B16 melanoma cells: Liver (luminescent metastatic nodules) ([7]; 18 days after injection): 7 ± 3.6 nodules | Detection of metastatic B16 melanoma cells: Lung (luminescent nodules) ([7]; 18 days after injection): TNTC | levels of B16 cells as detected by luminescence ([7]; GCV, day 18, FIG. 8): still showed relatively low levels of B16 cells | primary lung tumors ([7]; GCV, eighteen days after injection, FIG. 3A): large primary lung tumors were evident | metastases in distal organs (liver and fat tissue) ([7]; GCV, eighteen days after injection, FIG. 3A, 3C): almost devoid of metastases | metastases [7, 12]: many fewer metastases | primary tumors [7, 12]: much smaller primary tumors | levels of B16 cells as detected by luminescence ([7]; GCV, fifteen days after injection, FIG. 8): relatively low levels of B16 cells

COc1cccc2c1C(=O)c1c(O)c3c(c(O)c1C2=O)C[C@@](O)(C(=O)CO)C[C@@H]3O[C@H]1C[C@H](N)[C@H](O)[C@H](C)O1 [doxorubicin]
presence of senescent cells in tissues ([8]; p16-3MR mice): induced the persistent presence of senescent cells | levels of mRFP and p16INK4a mRNA in tissues ([8]; liver, heart, lung, kidney, spleen, vs untreated control mice, FIGS. 9A, 9B): higher levels of mRFP and p16INK4a in all tissues | Kcal/hr [9]: 0.34 ± 0.1 kcal/h | VCO2 [9]: 1.1 ± 0.36 mL/min | VO2 [9]: 1.14 ± 0.34 mL/min | Wheel run distance (total m) [9]: 2708 ± 1867 m | Kcal/hr [10]: 0.39 ± 0.1 kcal/h | VCO2 [10]: 1.19 ± 0.35 mL/min | VO2 [10]: 1.35 ± 0.33 mL/min | Wheel run distance [10]: 3315 ± 1958 m | IHOME [11]: 1.86 ± 1.66 | LLNGE [11]: 61.46 ± 18.11 | SLNGE [11]: 6.94 ± 2.51 | THOME [11]: 1.15 ± 1.12 | WHEEL [11]: 9.58 ± 13.12 | growth of B16 melanoma cells injected subcutaneously ([3]; doxorubicin 10 mg/kg): stimulated the growth | tumor growth / primary tumors (B16 bioluminescence) ([3]; doxorubicin 10 mg/kg): increased | tumor diameters (tumor sizes) ([3]; doxorubicin 10 mg/kg): increased tumor sizes | IHOME: Entered habitat (stable mass reading) [4, 13]: 4.86 ± 12.3 | LLNGE: Long lounge (>60 sec, no non-XY sensor interactions) [4, 13]: 72.06 ± 24.05 | SLNGE: Short lounge (5-60 sec, no non-XY sensor interactions) [4, 13]: 5.34 ± 3.64 | THOME: Interaction with habitat (no stable mass reading) [4, 13]: 1.16 ± 2.54 | WHEEL: Interaction with wheel (>=1 revolution) [4, 13]: 7.09 ± 10.84 | senescence in skin biopsies measured by p16INK4a and mRFP expression [5]: increased senescence
